# Active and inactive are the calls of the source.
# Experiments:
# [1] = Luminescence Cell-Based/Microorganism Confirmation at Dose of Inhibitors of Trypanosoma cruzi Infection. [Related pubchem assays: 1885, 1968 ]; assay type: functional
# [2] = Trypanosoma cruzi growth suppression in host cells – NIH3T3 host cells, beta-gal luminescence, confirmation (AID 2044); assay type: functional, cell-based;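 further: intracellular parasites grown in NIH/3T3 mouse fibroblasts as host cells; luminescent beta-galactosidase reporter signal from transgenic T. cruzi replicating inside host cells; inhibitors lower the luminescence signal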
# [3] = Luminescence Cell-Based Secondary HTS screen to identify cytotoxic compounds of NIH3T3 cells. [Related pubchem assays: 1885, 1968 ]; assay type: functional
# [4] = NIH3T3 cell viability loss – ATP luminescence, mouse fibroblasts, counter-screen, dose response (AID 2010); assay type: functional, cell-based;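 further: cells exposed to compound for about 90 hours before reading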
# [5] = biological target: T1, Microphthalmia-associated transcription factor (Homo sapiens, UniProt O75030); assay: reducers of TRPM1 reporter luminescence, concentration series – cell-based, SK-MEL-5, cherry-picked, set 3, MITF inhibitor project, dose response (AID 493073); assay type: functional;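 further: SK-MEL-5 melanoma cells with luciferase driven by the MITF target TRPM1 promoter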
# T1 sequence (O75030 whole entry): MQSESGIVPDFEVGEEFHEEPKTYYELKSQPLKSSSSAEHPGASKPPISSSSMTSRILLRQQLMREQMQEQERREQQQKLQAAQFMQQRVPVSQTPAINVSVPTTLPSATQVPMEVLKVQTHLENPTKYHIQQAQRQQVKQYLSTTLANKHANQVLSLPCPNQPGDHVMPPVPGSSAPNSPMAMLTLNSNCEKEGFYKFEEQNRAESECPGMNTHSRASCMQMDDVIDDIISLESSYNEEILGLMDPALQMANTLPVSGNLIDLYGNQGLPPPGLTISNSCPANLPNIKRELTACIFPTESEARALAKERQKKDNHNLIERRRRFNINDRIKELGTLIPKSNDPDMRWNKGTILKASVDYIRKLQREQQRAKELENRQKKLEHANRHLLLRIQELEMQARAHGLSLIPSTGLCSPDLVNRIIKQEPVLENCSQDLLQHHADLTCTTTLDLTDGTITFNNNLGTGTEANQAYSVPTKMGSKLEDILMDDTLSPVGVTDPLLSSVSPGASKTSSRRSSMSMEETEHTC
# [6] = T. cruzi infection blockers in NIH3T3 cells – beta-gal luminescence, NIH3T3 host cells, confirmation (AID 2630); assay type: functional, cell-based; conditions: Mus musculus
# INS1 [7] = assay: INS-1E survival protection against cytokine death – cell-based, luminescence, retest, dose response (AID 449756); assay type: functional; conditions: Rattus norvegicus;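 further: cell death triggered by IL-1 beta plus TNF-alpha plus IFN-gamma mixture; protective hits raise ATP signal compared with cytokine alone wells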
# [8] = biological target: T2, Ubiquitin-conjugating enzyme E2 N (Homo sapiens, UniProt P61088); assay type: functional;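 further: Dose-response confirmation in a TR-FRET assay detecting UBC13-driven polyubiquitin chain formation, inhibition measured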
# T2 sequence (P61088 whole entry): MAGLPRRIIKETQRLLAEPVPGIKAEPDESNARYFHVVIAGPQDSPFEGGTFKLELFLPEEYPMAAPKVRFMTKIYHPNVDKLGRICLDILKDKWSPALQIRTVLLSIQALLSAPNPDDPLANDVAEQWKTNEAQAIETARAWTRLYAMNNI
# [9] = biological target: Lysine-specific demethylase 4A (Homo sapiens, UniProt O75164); assay: inhibition of JMJD2A H3K9me3 demethylation – biochemical, DELFIA europium, cherry-picked samples, selectivity assay for GASC-1 inhibitor project, dose response (AID 488840)
# Escherichia coli [10] = assay: microbe, parasite or virus in culture
# Escherichia coli [11] = assay: microbe, parasite or virus in culture; remark: listed apart in the source
# [12] = biological target: T3, Short transient receptor potential channel 4 (Mus musculus, UniProt Q9QUQ5); assay: SAR Analysis for the identification of selective inhibits of the transient receptor potential cation channel C4 (TRPC4): Automated Electrophysiology_2. [Related pubchem assays (depositor defined):AID2256]; assay type: functional
# T3 sequence (Q9QUQ5 whole entry): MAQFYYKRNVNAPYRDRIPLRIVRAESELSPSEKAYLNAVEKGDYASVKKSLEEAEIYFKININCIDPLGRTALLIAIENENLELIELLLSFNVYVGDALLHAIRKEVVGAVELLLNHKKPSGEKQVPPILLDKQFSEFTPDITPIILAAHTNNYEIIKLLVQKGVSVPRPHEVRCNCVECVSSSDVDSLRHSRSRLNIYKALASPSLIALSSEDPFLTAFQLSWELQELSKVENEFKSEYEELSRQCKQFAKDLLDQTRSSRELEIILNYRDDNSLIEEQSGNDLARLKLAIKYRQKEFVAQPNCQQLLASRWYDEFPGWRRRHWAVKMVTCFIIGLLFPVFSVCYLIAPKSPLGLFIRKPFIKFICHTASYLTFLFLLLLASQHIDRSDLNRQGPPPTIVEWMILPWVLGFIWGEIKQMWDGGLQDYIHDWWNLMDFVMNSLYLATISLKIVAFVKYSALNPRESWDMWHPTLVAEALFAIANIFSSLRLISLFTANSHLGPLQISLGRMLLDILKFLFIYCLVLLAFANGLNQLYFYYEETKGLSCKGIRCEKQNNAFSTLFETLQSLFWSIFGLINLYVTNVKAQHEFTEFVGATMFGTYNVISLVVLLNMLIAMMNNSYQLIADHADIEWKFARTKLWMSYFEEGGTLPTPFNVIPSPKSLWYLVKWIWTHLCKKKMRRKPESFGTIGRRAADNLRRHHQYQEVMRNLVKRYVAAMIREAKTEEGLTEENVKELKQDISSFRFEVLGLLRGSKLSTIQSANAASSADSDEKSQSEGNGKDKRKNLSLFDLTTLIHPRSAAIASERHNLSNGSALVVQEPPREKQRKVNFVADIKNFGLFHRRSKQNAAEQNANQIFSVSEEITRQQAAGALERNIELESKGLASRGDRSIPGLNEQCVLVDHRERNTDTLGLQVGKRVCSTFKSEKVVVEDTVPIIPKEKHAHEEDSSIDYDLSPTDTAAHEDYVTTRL
# [13] = biological target: T3, Short transient receptor potential channel 4; assay: potency of mouse TRPC4 calcium flux blockers – cell-based, HEK293 TRPC4/mu-opioid, DAMGO stimulus, Fluo-4, dose response (AID 492994); assay type: functional
# INS1 [14] = assay: INS-1E mitochondrial potential rescue under cytokines – cell-based, JC-1 fluorescence ratio, dry powder, dose response (AID 488931); assay type: functional; conditions: Rattus norvegicus
# INS1 [15] = assay: beta-cell survival under cytokine stress – INS-1E, ATP luminescence, dry powder, dose response (AID 488844); assay type: functional, cell-based; conditions: Rattus norvegicus
# Chain of Lysine-specific demethylase 4A (O75164 whole entry): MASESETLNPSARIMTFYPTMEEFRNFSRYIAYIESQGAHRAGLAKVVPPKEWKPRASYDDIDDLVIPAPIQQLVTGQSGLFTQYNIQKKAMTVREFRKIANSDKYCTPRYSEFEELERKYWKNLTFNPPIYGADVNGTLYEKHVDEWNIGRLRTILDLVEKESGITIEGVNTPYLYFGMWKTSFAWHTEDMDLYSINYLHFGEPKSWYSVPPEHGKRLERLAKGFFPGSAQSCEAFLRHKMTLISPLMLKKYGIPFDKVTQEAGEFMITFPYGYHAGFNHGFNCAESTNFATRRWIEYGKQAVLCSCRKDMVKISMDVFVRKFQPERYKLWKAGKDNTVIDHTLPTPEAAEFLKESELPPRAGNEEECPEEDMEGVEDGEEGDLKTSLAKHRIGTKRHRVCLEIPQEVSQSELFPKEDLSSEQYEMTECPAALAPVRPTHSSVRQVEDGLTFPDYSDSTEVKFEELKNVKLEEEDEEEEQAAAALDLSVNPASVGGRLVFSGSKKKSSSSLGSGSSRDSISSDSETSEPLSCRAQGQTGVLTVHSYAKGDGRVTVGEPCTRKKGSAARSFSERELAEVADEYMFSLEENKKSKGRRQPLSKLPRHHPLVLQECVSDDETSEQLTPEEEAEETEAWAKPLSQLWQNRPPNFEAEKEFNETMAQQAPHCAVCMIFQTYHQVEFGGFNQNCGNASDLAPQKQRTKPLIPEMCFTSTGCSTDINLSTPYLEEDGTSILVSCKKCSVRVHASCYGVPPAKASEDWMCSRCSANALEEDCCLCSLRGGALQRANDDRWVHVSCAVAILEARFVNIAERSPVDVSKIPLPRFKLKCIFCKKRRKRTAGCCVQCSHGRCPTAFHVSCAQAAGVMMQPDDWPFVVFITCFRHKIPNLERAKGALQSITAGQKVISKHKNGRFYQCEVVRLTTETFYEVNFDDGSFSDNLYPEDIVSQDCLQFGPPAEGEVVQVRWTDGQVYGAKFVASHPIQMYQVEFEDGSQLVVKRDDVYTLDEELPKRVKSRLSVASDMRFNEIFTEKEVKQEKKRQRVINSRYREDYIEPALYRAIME
smiles,measurement,setting,value
Cc1ccc(NC(=O)CCC(=O)N/N=C/c2ccc([N+](=O)[O-])o2)cc1C,EC50,[1],0.032 µM (active)
same,EC50,[2],< 0.1 µM (active)
same,EC50,[3],> 195 µM (not active)
same,EC50,[4],> 30 µM (not active)
same,AC50,[5],6.25 µM (active)
same,EC50,[6],0.032 µM (active)
same,AC50,INS1 [7],7.44 µM (active)
same,EC50,cells,0.016 µM (active)
C[C@@H](CN1CCC[C@H]1CN1C(N)=NC[C@@H]1Cc1ccccc1)N1C[C@@H](Cc2ccccc2)N(CCc2ccc(Cl)c(Cl)c2)C1=N,IC50,[8],> 20 µM (inactive)
same,AC50,[9],9.21 µM (active)
same,AC50,Escherichia coli [10],15.6 µM (active)
same,AC50,Escherichia coli [11],24.1 µM (active)
CCN(CC)c1cc(C)c2ccccc2n1,IC50,[12],7.54 µM (active)
same,IC50,[13],5.24 µM (active)
COc1ccc(S(=O)(=O)N(C)C[C@@H]2Oc3c(NC(=O)Nc4ccc5c(c4)OCO5)cccc3C(=O)N([C@@H](C)CO)C[C@H]2C)cc1,AC50,INS1 [14],98.3 µM (active)
COc1ccc(S(=O)(=O)N(C)C[C@@H]2Oc3c(NC(=O)Nc4ccc(F)cc4)cccc3C(=O)N([C@H](C)CO)C[C@H]2C)cc1,AC50,INS1 [15],41.7 µM (active)

# From ChEMBL document CHEMBL1201862, “PubChem BioAssay data set” (2004)
